PubChem BioAssay (NCI)
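Tested at 5 concentrations; 48 h exposure; 96-well plates; endpoints linearly interpolated, else capped at highest concentration. TGI marks complete inhibition of growth.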 Square brackets hold non-standard residues; d marks the D form. Peptide text beside a SMILES is read from it. Phe(4-NO2) = N[CH](Cc1ccc([N+](=O)[O-])cc1)C(=O)O

Assays:
Assay in all cases: DTP human tumour cell line panel, 48 h
MDA-N = tested on: MDA-N
MALME-3M melanoma = tested on: MALME-3M melanoma
ACHN renal = tested on: ACHN renal
786-0 renal = tested on: 786-0 renal
EKVX NSCLC = tested on: EKVX NSCLC
KM12 colon = tested on: KM12 colon
SF-539 CNS = tested on: SF-539 CNS
SK-MEL-5 melanoma = tested on: SK-MEL-5 melanoma
SF-268 CNS = tested on: SF-268 CNS
NCI-H522 lung = tested on: NCI-H522 lung
A549 NSCLC = tested on: A549 NSCLC
CCRF-CEM leukemia = tested on: CCRF-CEM leukemia

Row | Structure (SMILES) | TGI (MDA-N) | TGI (MALME-3M melanoma) | TGI (ACHN renal) | TGI (786-0 renal) | TGI (EKVX NSCLC) | TGI (KM12 colon) | TGI (SF-539 CNS) | TGI (SK-MEL-5 melanoma) | TGI (SF-268 CNS) | TGI (NCI-H522 lung) | TGI (A549 NSCLC) | TGI (CCRF-CEM leukemia)
1 | COc1cc2c3cc1Oc1c(OC)c(OC)cc4c1C(Cc1ccc(O)c(c1)-c1cc(ccc1OC)CC3N(C)CC2)N(C)CC4 (configuration not stated) | 30.6 µM | 41.4 µM | 56.8 µM | > 100 µM | 91.1 µM | 37.6 µM | 23.4 µM | 40.5 µM | 72.3 µM | 31.1 µM | > 100 µM | –
2 | NC(Cc1ccc(O)cn1)C(=O)O (configuration not stated) | > 100 µM | > 100 µM | > 100 µM | > 100 µM | > 100 µM | > 100 µM | > 100 µM | > 100 µM | > 100 µM | > 100 µM | > 100 µM | –
3 | CN(C)c1c(C2CC(O)C(CO)O2)c(=O)c1=O (configuration not stated) | > 100 µM | – | > 100 µM | > 100 µM | > 100 µM | > 100 µM | > 100 µM | – | > 100 µM | > 100 µM | > 100 µM | –
4 | COC(=O)[C@]1(Cc2ccc3ccccc3c2)CCCCCCN1C(=O)c1ccccc1 | > 53.5 µM | > 53.2 µM | > 73.2 µM | > 53.2 µM | > 50.9 µM | > 49 µM | > 54.1 µM | > 100 µM | > 54 µM | – | > 100 µM | > 53.7 µM
5 | COC(=O)CCC(NC(=O)C(CCC(=O)OC)NC(=O)C(CCC(=O)OC)NC(=O)C(CCC(=O)OC)NC(=O)C(CCC(=O)OC)NC(=O)C(Cc1ccc([N+](=O)[O-])cc1)NC(=O)C(CCC(=O)OC)NC(=O)C(CCC(=O)OC)NC(=O)C(CCC(=O)OC)NC(=O)C(CCC(=O)OC)NC(=O)C(CCC(=O)OC)NC(C)=O)C(N)=O (configuration not stated) (Ac-E(OMe)E(OMe)E(OMe)E(OMe)E(OMe)[Phe(4-NO2)]E(OMe)E(OMe)E(OMe)E(OMe)E(OMe)-NH2; configuration not given here) | > 100 µM | > 100 µM | > 100 µM | > 100 µM | > 100 µM | > 100 µM | – | > 100 µM | > 100 µM | > 100 µM | > 100 µM | > 100 µM
6 | COc1ncc(C#CC(=O)c2ccccc2)c(OC)n1 | 3.73 µM | 3.62 µM | 3.7 µM | 4.2 µM | 9.16 µM | 22.9 µM | – | 6.68 µM | 26.4 µM | 2.81 µM | 33.1 µM | 2.07 µM
7 | CC1(C)/C(=N\Nc2ccc([N+](=O)[O-])cc2[N+](=O)[O-])C2CCC1C2 (configuration not stated) | > 100 µM | > 100 µM | > 100 µM | > 100 µM | > 100 µM | > 100 µM | – | > 100 µM | > 100 µM | > 100 µM | > 100 µM | –
8 | C#CCOC(=O)[C@@H](C)c1ccc2cc(OC)ccc2c1 | > 100 µM | – | > 100 µM | > 100 µM | > 100 µM | > 100 µM | > 100 µM | > 100 µM | > 100 µM | > 100 µM | – | > 100 µM
9 | C[C@]12CC/C(=N\O)C=C1CC[C@@H]1[C@@H]2CC[C@]2(C)C(=N/O)/C(=C/c3ccncc3)C[C@@H]12 | > 100 µM | > 100 µM | > 100 µM | > 100 µM | > 100 µM | > 100 µM | > 100 µM | 23 µM | > 100 µM | 99.2 µM | > 100 µM | –
10 | CN(C(=O)c1ccc(Cl)cc1)C(=S)N1CCN(c2ccccc2)CC1 | > 100 µM | > 100 µM | > 100 µM | > 100 µM | – | > 100 µM | – | > 100 µM | > 100 µM | > 100 µM | > 100 µM | > 100 µM
11 | Cc1nn(C(=O)c2ccncc2)c2c1C(c1ccc([N+](=O)[O-])cc1)SC(N)=N2 (configuration not stated) | > 100 µM | > 100 µM | > 100 µM | > 100 µM | > 100 µM | > 100 µM | > 100 µM | > 100 µM | > 100 µM | – | > 100 µM | > 100 µM
12 | S=C(S)N1CCN(c2ccccc2)CC1 | > 100 µM | > 100 µM | > 100 µM | > 100 µM | > 100 µM | > 100 µM | > 100 µM | > 100 µM | > 100 µM | > 100 µM | > 100 µM | –
13 | CCCCN1CCC(O)(c2cc(C(=O)O)[nH]c2-c2cc(C)no2)C1=O (configuration not stated) | > 100 µM | > 100 µM | > 100 µM | > 100 µM | > 100 µM | > 100 µM | – | > 100 µM | > 100 µM | > 100 µM | > 100 µM | –
14 | CCCCSC1=N/C(=C\c2ccc(N(C)C)cc2)C(Cl)=N1 | > 100 µM | > 100 µM | > 100 µM | > 100 µM | > 100 µM | > 100 µM | > 100 µM | – | > 100 µM | > 100 µM | > 100 µM | –
